Reference: ChEMBL document CHEMBL5500342, “Rational molecular design converting fascaplysin derivatives to potent broad-spectrum inhibitors against bacterial pathogens via targeting FtsZ” (Eur J Med Chem, 2024)
Activity calls are given as the source filed them. The calls are words filed in the database; no cut-off is given here.

Experiments:
[1] = system: Staphylococcus aureus; assay: Antibacterial activity against methicillin-resistant Staphylococcus aureus ATCC43300 assessed as inhibition of bacterial growth incubated for 18 hrs by CLSI protocol based microbroth dilution method; type: functional
[2] = system: Staphylococcus aureus; assay: Selectivity ratio of MBC for bactericidal activity against methicillin-resistant Staphylococcus aureus ATCC43300 to MIC for antibacterial activity against methicillin-resistant Staphylococcus aureus ATCC43300; type: functional
[3] = system: Staphylococcus aureus; assay: Antibacterial activity against methicillin-resistant Staphylococcus aureus ATCC43300 assessed as reduction in bacterial count at 2 times of MIC incubated for 24 hrs by time kill kinetics assay; type: functional, organism-based
[4] = system: Staphylococcus aureus; assay: Antibacterial activity against methicillin-resistant Staphylococcus aureus ATCC43300 assessed as reduction in bacterial count at 4 times of MIC incubated for 24 hrs by time kill kinetics assay; type: functional, organism-based
[5] = system: Escherichia coli; assay: Antibacterial activity against penicillin-susceptible Escherichia coli ATCC25922 assessed as reduction in bacterial count incubated for 24 hrs by time kill kinetics assay; type: functional, organism-based
[6] = system: Escherichia coli; assay: Antibacterial activity against penicillin-susceptible Escherichia coli ATCC25922 assessed as log reduction in bacterial count at 4 times of MIC measured after 24 hrs by time kill kinetics assay; type: functional, organism-based
[7] = system: Escherichia coli; assay: Antibacterial activity against penicillin-susceptible Escherichia coli ATCC25922 assessed as log reduction in bacterial count at 2 times of MIC measured after 12 hrs by time kill kinetics assay; type: functional, organism-based
[8] = system: Staphylococcus aureus; assay: Antibacterial activity against methicillin-resistant Staphylococcus aureus ATCC43300 at assessed as reduction in bacterial growth at 0.5 times of MIC incubated for 18 to 24 hrs and measured after 25 passages by drug resistance assay; type: functional, organism-based
[9] = system: Escherichia coli; assay: Drug resistance, ratio of MIC for penicillin-susceptible Escherichia coli ATCC25922 incubated for 18 to 24 hrs and measured after 21 passages to MIC for penicillin-susceptible Escherichia coli ATCC25922 measured after 18 to 24 hrs; type: functional
[10] = system: Cell membrane; assay: Disruption of cell membrane integrity in methicillin-resistant Staphylococcus aureus ATCC43300 assessed as cell wall disruption at 4 times of MIC incubated for 2 hrs by transmission electron microscopic analysis; type: cell membranes
[11] = system: Cell membrane; assay: Disruption of cell membrane integrity in penicillin-susceptible Escherichia coli ATCC25922 assessed as cell deformation at 4 times of MIC incubated for 2 hrs by transmission electron microscopic analysis; type: cell membranes
[12] = system: Staphylococcus aureus; assay: Induction of morphological changes in methicillin-resistant Staphylococcus aureus ATCC43300 assessed as swelling at 0.5 times of MIC incubated for 4 hrs by optical microscopic analysis; type: functional, organism-based
[13] = target: T1, Cell division protein FtsZ (Staphylococcus aureus) (UniProt P0A031); assay: Induction of recombinant FtsZ polymerization in methicillin-resistant Staphylococcus aureus ATCC43300 assessed as bundling of FtsZ protofilaments at 1 to 4 microg/ml measured within 5 mins by light scattering assay; details: filed as activator, dose 1-4 µg/ml
T1 sequence (whole entry): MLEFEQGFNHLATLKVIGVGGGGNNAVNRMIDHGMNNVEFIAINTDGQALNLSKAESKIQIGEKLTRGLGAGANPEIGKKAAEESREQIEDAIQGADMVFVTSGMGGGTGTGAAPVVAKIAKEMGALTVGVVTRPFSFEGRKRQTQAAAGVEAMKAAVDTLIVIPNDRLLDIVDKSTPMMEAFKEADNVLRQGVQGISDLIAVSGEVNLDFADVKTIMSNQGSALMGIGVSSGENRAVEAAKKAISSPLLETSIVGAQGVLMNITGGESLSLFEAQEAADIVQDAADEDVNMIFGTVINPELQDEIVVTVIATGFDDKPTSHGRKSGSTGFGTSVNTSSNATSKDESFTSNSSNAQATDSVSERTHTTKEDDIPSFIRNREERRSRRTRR

[14] = target: T1, Cell division protein FtsZ (Staphylococcus aureus); assay: Induction of recombinant FtsZ polymerization in methicillin-resistant Staphylococcus aureus ATCC43300 assessed as bundling of FtsZ protofilaments by measuring fold increase in maximal intensity at 4 microg/ml measured after 10 mins by light scattering assay; details: filed as activator, dose 4.0 µg/ml
[15] = target: T2, Cell division protein FtsZ (Escherichia coli K-12) (UniProt P0A9A6); assay: Induction of recombinant FtsZ polymerization in penicillin-susceptible Escherichia coli ATCC25922 assessed as bundling of FtsZ protofilaments at 1 to 4 microg/ml incubated for 10 mins by light scattering assay; details: filed as activator, dose 1-4 µg/ml
T2 sequence (whole entry): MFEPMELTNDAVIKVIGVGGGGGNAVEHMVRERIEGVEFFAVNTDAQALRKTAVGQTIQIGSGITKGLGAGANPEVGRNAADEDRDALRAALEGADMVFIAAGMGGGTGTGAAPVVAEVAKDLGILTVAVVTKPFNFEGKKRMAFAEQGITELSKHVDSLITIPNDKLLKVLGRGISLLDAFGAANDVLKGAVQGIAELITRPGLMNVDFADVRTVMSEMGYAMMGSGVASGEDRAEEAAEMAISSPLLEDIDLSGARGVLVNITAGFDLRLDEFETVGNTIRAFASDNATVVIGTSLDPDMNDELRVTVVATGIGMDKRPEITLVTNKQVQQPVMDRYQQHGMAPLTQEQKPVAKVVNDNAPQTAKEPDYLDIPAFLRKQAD

[16] = target: T2, Cell division protein FtsZ (Escherichia coli K-12); assay: Induction of recombinant FtsZ polymerization in penicillin-susceptible Escherichia coli ATCC25922 assessed as stabilization of FtsZ bundles at 1 to 4 microg/ml incubated for 10 mins by light scattering assay; details: filed as activator, dose 1-4 µg/ml
[17] = target: T1, Cell division protein FtsZ (Staphylococcus aureus); assay: Induction of FtsZ polymerization in methicillin-resistant Staphylococcus aureus ATCC43300 assessed as bundling of FtsZ protofilaments at 4 microg/ml preincubated for 10 mins followed by GTP addition and measured after 15 mins by transmission electron microscopic analysis; details: filed as activator, dose 4.0 µg/ml, time 25.0 min
[18] = target: T2, Cell division protein FtsZ (Escherichia coli K-12); assay: Induction of FtsZ polymerization in penicillin-susceptible Escherichia coli ATCC25922 assessed as thicker bundles at 4 microg/ml preincubated for 10 mins followed by GTP addition and measured after 15 mins by transmission electron microscopic analysis; details: filed as activator, dose 4.0 µg/ml, time 25.0 min
[19] = system: Staphylococcus aureus; assay: Inhibition of biofilm formation in methicillin-resistant Staphylococcus aureus ATCC43300 incubated for 24 hrs by crystal violet staining based analysis; type: functional, organism-based; details: dose 0.78-100 µg/ml
[20] = system: Escherichia coli; assay: Antibacterial activity against penicillin-susceptible Escherichia coli ATCC25922 assessed as log reduction in bacterial count by time kill kinetics assay; type: functional
[21] = system: Cell membrane; assay: Disruption of cell membrane integrity in methicillin-resistant Staphylococcus aureus ATCC43300 assessed as appearance of collapsed cells at 4 times of MIC incubated for 2 hrs by transmission electron microscopic analysis; type: cell membranes
[22] = system: Cell membrane; assay: Disruption of cell membrane integrity in penicillin-susceptible Escherichia coli ATCC25922 assessed as appearance of wrecked cells at 4 times of MIC incubated for 2 hrs by transmission electron microscopic analysis; type: cell membranes
[23] = system: Cell membrane; assay: Disruption of cell membrane integrity in penicillin-susceptible Escherichia coli ATCC25922 assessed as scattered leakage of content at 4 times of MIC incubated for 2 hrs by transmission electron microscopic analysis; type: cell membranes
[24] = system: Staphylococcus aureus; assay: Inhibition of biofilm formation in methicillin-resistant Staphylococcus aureus ATCC43300 assessed as decrease in biofilm formation rate at 6.25 microg/ml incubated for 24 hrs by crystal violet staining based analysis relative to control; type: functional; set-up: scale not given: the % may be the effect or the level left; details: dose 6.25 µg/ml

SMILES: O=C1c2ccccc2-[n+]2ccc3c([nH]c4ccc(-c5ccccc5C(F)(F)F)cc43)c21.[Cl-]
- MIC [1]: 1.56 µg/mL
- Selectivity ratio [2]: 1
- Activity [3]: Active
- Activity [4]: Active
- Activity [5]: Dose-Dependent Effect
- Activity [6]: Active
- Activity [7]: inactive
- Activity [8]: Active
- Ratio [9]: 12
- Activity [10]: Active
- Activity [11]: Active
- Activity [12]: Active
- Activity [13]: Active
- fold change (FC) [14]: 2
- Activity [15]: Active
- Activity [16]: Active
- Activity [17]: Active
- Activity [18]: Active
- inhibition [19]: Dose-Dependent Effect

SMILES: O=C1c2ccccc2-[n+]2ccc3c([nH]c4ccc(-c5ccccc5Cl)cc43)c21.[Cl-]
- MIC [1]: 1.56 µg/mL
- Selectivity ratio [2]: 1
- Activity [3]: Active
- Activity [4]: Active
- Activity [20]: 1 log10CFU/ml
- Activity [8]: Active
- Activity [21]: Active
- Activity [11]: Active
- Activity [22]: Active
- Activity [23]: Active
- Activity [12]: Active
- Activity [13]: Active
- fold change (FC) [14]: 2
- Activity [15]: Active
- Activity [16]: Active
- Activity [17]: Active
- Activity [18]: Active
- inhibition [19]: Dose-Dependent Effect
- Activity [24]: 49%

SMILES: O=C1c2ccccc2-[n+]2ccc3c([nH]c4ccc(-c5ccccc5F)cc43)c21.[Cl-]
- MIC [1]: 0.195 µg/mL
- Selectivity ratio [2]: 1
- Activity [3]: Active
- Activity [4]: Active
- Activity [8]: Active
- Activity [21]: Active
- Activity [11]: Active
- Activity [12]: Active
- Activity [13]: Active
- fold change (FC) [14]: 2
- Activity [15]: Active
- Activity [16]: Active
- Activity [17]: Active
- Activity [18]: Active
- inhibition [19]: Dose-Dependent Effect
